Our source for the IC50 values is patent US10000476B2, “Pyridone derivative, pharmaceutical containing the same and methods of use thereof” (KAKEN PHARMACEUTICAL CO., LTD., priority 2011, dated 2018).

Holding throughout (format): biochemical
One test deals with TACE (Homo sapiens (Human), UniProt P78536). The test can be described thus: TACE inhibition test (in vitro). The note with it: fluorescent synthetic substrate, 37° C., 1.5 hours. In a few lines: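 Recombinant enzyme (cDNA from THP-1 cells, expressed in mammalian or insect cells) with quenched substrate Nma-Leu-Ala-Gln-Ala-Val-Arg-Ser-Ser-Lys(Dnp)-D-Arg-NH2. Incubated 1.5 h at 37 °C; fluorescence read at ex 355/em 460 nm; IC50 from inhibition rate.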
TACE, sequence (P78536 215-824): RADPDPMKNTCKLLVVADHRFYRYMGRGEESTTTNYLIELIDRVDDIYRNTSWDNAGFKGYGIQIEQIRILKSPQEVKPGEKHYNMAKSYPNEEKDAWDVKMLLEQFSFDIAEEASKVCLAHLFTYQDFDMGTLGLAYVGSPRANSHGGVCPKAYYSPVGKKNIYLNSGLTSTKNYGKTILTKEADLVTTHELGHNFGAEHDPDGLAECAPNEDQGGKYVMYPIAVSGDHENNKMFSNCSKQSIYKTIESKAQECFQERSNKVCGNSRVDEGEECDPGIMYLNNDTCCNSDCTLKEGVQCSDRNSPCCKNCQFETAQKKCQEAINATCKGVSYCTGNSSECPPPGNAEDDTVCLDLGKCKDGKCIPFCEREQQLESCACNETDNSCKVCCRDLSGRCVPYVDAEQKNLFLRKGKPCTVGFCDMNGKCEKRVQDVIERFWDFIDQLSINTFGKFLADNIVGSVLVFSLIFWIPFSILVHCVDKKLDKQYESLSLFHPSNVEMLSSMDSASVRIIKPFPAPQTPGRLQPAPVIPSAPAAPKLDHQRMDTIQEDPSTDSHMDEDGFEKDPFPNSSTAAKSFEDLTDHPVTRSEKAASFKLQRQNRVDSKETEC

The next test addresses human MMP-2 (Homo sapiens (Human), UniProt P08253). The test can be described thus: MMP-2 inhibition test. The note with it: read-out: MMPs IC50 MMP-2. The protocol: (§1) MMP inhibition tests can be carried out, for example, using a fluorescent synthetic substrate based on the methods described in Bickett et al. (D. Mark Bickett et al., Anal. Biochem., 1993, 212, 58-64) and Nagase et al. (H. Nagase et al., J. Biol. Chem., 1994, 269, 20952-20957). The method for each MMP inhibition test is shown below.
(§2) 90 μL (5 ng) of human MMP-2 (Calbiochem #444213) was mixed with 10 μL of 10 mM APMA, and activated by reacting at 37° C. for 1 hour. 10 μL of the resultant enzyme solution was diluted to 90 μL with an assay buffer A. The mixture was added to 90 μL of a 20 μM fluorescent substrate (MOCAc((7-methoxycoumarin-4-yl)acetyl)-Pro-Leu-Gly-Leu-A2pr(Dnp)-Ala-Arg-NH2, Peptide Institute Inc., #3163-v) (SEQ ID NO: 3) prepared with an assay buffer B, and reacted at 37° C. for 5 hours. Enzyme activity was then determined by measuring with a fluorescence intensity meter (Labsystems, Fluoroskan Ascent) at an excitation wavelength of 320 nm and a measurement wavelength of 405 nm.
(§3) From the enzyme activity in the presence or the absence of the test substance, the inhibition rate was determined, and the 50% inhibitiory concentration (IC50) of the test substance was calculated.

In a further test the target is human MMP-1 (Homo sapiens (Human), UniProt P03956). The test can be described thus: MMP-1 inhibition test. The note with it: read-out: MMPs IC50 MMP-1. The protocol:
as §1
180 μL (100 ng) of human MMP-1 (Calbiochem #444208) was mixed with 20 μL of 10 mM p-amino phenyl mercuric acetate (APMA), and activated by reacting at 37° C. for 1 hour. 20 μL of the resultant enzyme solution was diluted to 90 μL with an assay buffer A. The mixture was added to 90 μL of a 20 μM fluorescent substrate (Dnp-Pro-Cha(β-cyclohexylalanyl)-Gly-Cys(Me)-His-Ala-Lys(Nma)-NH2) (SEQ ID NO: 2) prepared with an assay buffer B, and reacted at 37° C. for 5 hours. Enzyme activity was then determined by measuring with a fluorescence intensity meter (Labsystems, Fluoroskan Ascent) at an excitation wavelength of 355 nm and a measurement wavelength of 460 nm.
as §3

The next test addresses human MMP-8 (Homo sapiens (Human), UniProt P22894). The test can be described thus: MMP-8 inhibition test. The note with it: read-out: MMPs IC50 MMP-8. The protocol: as §1
as §2, with “(29” for “(5”, “MMP-8” for “MMP-2”, “#444229)” for “#444213)”, “(MOCAc-Pro-Leu-Gly-Leu-A2pr(Dnp)-Ala-Arg-NH2,” for “(MOCAc((7-methoxycoumarin-4-yl)acetyl)-Pro-Leu-Gly-Leu-A2pr(Dnp)-Ala-Arg-NH2,”
as §3

In a further test the target is human MMP-17 (Homo sapiens, UniProt Q9ULZ9). The test can be described thus: MMP-17 inhibition test. The note with it: read-out: MMPs IC50 MMP-17. The protocol: as §1
human MMP-17, sequence (Q9ULZ9 126-565 limits assumed): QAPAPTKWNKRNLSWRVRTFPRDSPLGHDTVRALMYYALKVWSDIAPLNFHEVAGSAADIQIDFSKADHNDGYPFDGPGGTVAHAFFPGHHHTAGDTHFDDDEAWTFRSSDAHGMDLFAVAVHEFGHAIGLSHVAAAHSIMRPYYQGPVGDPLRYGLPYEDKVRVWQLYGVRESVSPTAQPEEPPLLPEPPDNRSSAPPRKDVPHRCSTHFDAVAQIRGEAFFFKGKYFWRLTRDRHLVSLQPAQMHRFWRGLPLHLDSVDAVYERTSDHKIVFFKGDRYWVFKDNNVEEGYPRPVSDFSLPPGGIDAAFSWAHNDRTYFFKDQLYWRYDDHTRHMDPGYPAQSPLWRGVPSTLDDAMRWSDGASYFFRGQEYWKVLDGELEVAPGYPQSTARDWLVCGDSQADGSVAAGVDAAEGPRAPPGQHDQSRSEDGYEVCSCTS
90 μL (5.8 ng) of human MMP-17 (Calbiochem #475940) prepared with an assay buffer A was added to 90 μL of a 20 μM fluorescent substrate (MOCAc-Pro-Leu-Gly-Leu-A2pr(Dnp)-Ala-Arg-NH2, Peptide Institute Inc., #3163-v) (SEQ ID NO: 3) prepared with an assay buffer B, and reacted at room temperature for 5 hours. Enzyme activity was then determined by measuring with a fluorescence intensity meter (Labsystems, Fluoroskan Ascent) at an excitation wavelength of 320 nm and a measurement wavelength of 405 nm.
as §3

In the next test the target is human MMP-3 (Homo sapiens (Human), UniProt P08254). Briefly: MMP-3 inhibition test. The note with it: read-out: MMPs IC50 MMP-3. The protocol: as §1
human MMP-3, sequence (P08254 100-272): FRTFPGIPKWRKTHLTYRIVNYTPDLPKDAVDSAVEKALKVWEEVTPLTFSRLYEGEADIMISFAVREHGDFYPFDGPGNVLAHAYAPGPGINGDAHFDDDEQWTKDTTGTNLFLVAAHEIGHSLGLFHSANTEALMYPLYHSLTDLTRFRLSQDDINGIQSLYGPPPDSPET
90 μL (1.5 ng) of human MMP-3 (Calbiochem #444217) prepared with an assay buffer A was added to 90 μL of a 20 μM fluorescent substrate NFF-3 (MOCAc((7-methoxycoumarin-4-yl)acetyl)-Arg-Pro-Lys-Pro-Val-Glu-Nva-Trp-Arg-Lys(Dnp)-NH2, Peptide Institute Inc., #3168-v) (SEQ ID NO: 4) prepared with an assay buffer B, and reacted at 37° C. for 4 hours. Enzyme activity was then determined by measuring with a fluorescence intensity meter (Labsystems, Fluoroskan Ascent) at an excitation wavelength of 320 nm and a measurement wavelength of 405 nm.
as §3

A word on the IC50: it is the concentration that gives 50% inhibition.

Each structure is given as a SMILES string.

human MMP-8, sequence (P22894 101-467): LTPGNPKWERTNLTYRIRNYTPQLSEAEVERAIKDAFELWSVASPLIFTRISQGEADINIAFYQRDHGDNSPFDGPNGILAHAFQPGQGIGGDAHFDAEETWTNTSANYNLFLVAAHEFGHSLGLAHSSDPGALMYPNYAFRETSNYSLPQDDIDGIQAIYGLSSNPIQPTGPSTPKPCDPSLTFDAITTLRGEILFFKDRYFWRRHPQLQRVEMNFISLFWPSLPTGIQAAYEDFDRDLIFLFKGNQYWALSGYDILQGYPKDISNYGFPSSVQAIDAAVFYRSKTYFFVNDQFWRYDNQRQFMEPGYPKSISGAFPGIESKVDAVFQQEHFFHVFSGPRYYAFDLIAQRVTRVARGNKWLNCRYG
human MMP-2, sequence (P08253 110-660): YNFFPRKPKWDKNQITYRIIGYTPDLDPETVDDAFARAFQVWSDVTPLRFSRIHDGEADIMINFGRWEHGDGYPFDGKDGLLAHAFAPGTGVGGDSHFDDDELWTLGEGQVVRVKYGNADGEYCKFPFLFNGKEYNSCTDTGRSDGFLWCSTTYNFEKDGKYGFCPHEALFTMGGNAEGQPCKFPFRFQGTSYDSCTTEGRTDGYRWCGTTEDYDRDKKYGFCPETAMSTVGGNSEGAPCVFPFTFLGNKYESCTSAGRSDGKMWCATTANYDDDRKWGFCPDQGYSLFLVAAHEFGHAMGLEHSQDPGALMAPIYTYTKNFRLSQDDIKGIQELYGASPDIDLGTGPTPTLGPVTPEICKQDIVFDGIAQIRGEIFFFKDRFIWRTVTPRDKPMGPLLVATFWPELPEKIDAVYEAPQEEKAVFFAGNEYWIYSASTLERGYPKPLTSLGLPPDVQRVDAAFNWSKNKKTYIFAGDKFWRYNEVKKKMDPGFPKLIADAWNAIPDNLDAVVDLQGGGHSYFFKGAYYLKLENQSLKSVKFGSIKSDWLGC
human MMP-1, sequence (P03956 100-469): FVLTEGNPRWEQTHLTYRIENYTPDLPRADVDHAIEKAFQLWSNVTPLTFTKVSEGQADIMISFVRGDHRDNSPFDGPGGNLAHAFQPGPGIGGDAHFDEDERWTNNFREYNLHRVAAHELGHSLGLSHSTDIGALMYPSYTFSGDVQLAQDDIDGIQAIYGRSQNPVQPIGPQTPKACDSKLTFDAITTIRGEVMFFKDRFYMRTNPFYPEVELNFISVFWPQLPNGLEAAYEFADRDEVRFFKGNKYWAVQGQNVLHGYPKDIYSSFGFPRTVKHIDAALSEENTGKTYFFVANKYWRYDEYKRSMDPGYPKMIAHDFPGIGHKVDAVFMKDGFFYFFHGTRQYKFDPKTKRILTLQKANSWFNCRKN

In the case of `Cc1cccn(CC2(c3ccccc3)NC(=O)NC2=O)c1=O` (stereo not drawn) [Compound I-1, 5-[(3-methyl-2-oxopyridin-1(2H)-yl)methyl]-5-phenyl-imidazolidine-2,4-dione], the IC50 is < 0.1 µM at TACE; > 100 µM at human MMP-2; > 100 µM on human MMP-1; 21 µM at human MMP-8; > 100 µM on human MMP-17; > 100 µM on human MMP-3.

Regarding `Cc1cccn(CC2(c3ccc(Oc4ccccc4)cc3)NC(=O)NC2=O)c1=O` (stereo not drawn) [Compound I-9, 5-[(3-methyl-2-oxopyridin-1(2H)-yl)methyl]-5-(4-phenoxyphenyl)imidazolidine-2,4-dione], the 50% inhibitory concentration (IC50) on TACE was < 0.1 µM; at human MMP-2, 29 µM; on human MMP-1 it was > 100 µM; at human MMP-8, 14 µM; at human MMP-17, 21 µM; on human MMP-3, 74 µM.

As for `Cc1cccn(CC2(c3ccc(F)c(F)c3)NC(=O)NC2=O)c1=O` (stereo not drawn) [Compound I-10, 5-(3,4-difluorophenyl)-5-[(3-methyl-2-oxopyridin-1(2H)-yl)methyl] imidazolidine-2,4-dione], the IC50 on TACE was < 0.1 µM; at human MMP-2 it was > 100 µM; at human MMP-1 it was > 100 µM; at human MMP-8, 19 µM; on human MMP-17, > 100 µM; on human MMP-3 it was > 100 µM.

For `COc1ccc(Cl)cc1C1(Cn2cccc(C)c2=O)NC(=O)NC1=O` (stereo not drawn) [Compound I-27, 5-(5-chloro-2-methoxyphenyl)-5-[(3-methyl-2-oxopyridin-1(2H)-yl)methyl]imidazolidine-2,4-dione], the IC50 against TACE is < 0.1 µM; on human MMP-2 it was 62 µM; on human MMP-1, > 100 µM; on human MMP-8, 16 µM; at human MMP-17, 57 µM; at human MMP-3, 49 µM.

For `Cc1cccn(CC2(c3ccc(Cc4ccccc4)cc3)NC(=O)NC2=O)c1=O` (stereo not drawn) [Compound I-40, 5-(4-benzylphenyl)-5-[(3-methyl-2-oxopyridin-1(2H)-yl)methyl]imidazolidine-2,4-dione], the IC50 is < 0.1 µM on TACE; > 100 µM on human MMP-2; > 100 µM at human MMP-1; 16 µM at human MMP-8; 30 µM at human MMP-17; > 100 µM on human MMP-3.

Regarding `Cc1cccn(CC2(c3ccc(Cc4ccc(F)cc4)cc3)NC(=O)NC2=O)c1=O` (stereo not drawn) [Compound I-41, 5-[4-(4-fluorobenzyl)phenyl]-5-[(3-methyl-2-oxopyridin-1(2H)-yl)methyl] imidazolidine-2,4-dione], the IC50 was < 0.1 µM against TACE; 69 µM on human MMP-2; 93 µM on human MMP-1; > 10 µM at human MMP-8; 16 µM on human MMP-17; > 100 µM at human MMP-3.

Take `Cc1cccn(CC2(c3cccc(-c4cccnc4)c3)NC(=O)NC2=O)c1=O` (stereo not drawn) [Compound I-62]: the IC50 on TACE was < 0.1 µM; on human MMP-2, 31 µM; on human MMP-1, > 100 µM; on human MMP-8, 5 µM; at human MMP-17, 45 µM; on human MMP-3 it was 39 µM.

`Cc1cccn(CC2(c3ccc(OCc4ccccc4)cc3)NC(=O)NC2=O)c1=O` (stereo not drawn) [Compound I-64]: the IC50 at TACE was < 0.1 µM; on human MMP-2 it was > 10 µM; on human MMP-1, > 100 µM; at human MMP-8, 6.2 µM; at human MMP-17, > 100 µM; at human MMP-3, > 100 µM.

On to `Cc1cccn(CC2(c3ccc(Oc4ccccc4F)cc3)NC(=O)NC2=O)c1=O` (stereo not drawn) [Compound I-86], for which the IC50 was < 0.1 µM against TACE; 51 µM at human MMP-2; > 100 µM on human MMP-1; 18 µM at human MMP-8; 27 µM at human MMP-17; > 100 µM on human MMP-3.
